In patent publication US20150051202A1, “TRIAZOLOPYRAZINE DERIVATIVES” (Merck Patent GmbH, priority 2012, published 2015):

How the values were obtained:
[1] = test system: tumors over-expressing IDO; conditions: several tumor models, monotherapy; cited from earlier work
[2] = molecular target: GCN2 (Homo sapiens, UniProt Q9P2K8); experiment: GCN2 enzyme assay (TR-FRET Lanthascreen, GFP-eIF2alpha substrate); assay type: biochemical
Procedure, shortened: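 GCN2 (30 nM) incubated at room temperature with 10 μM ATP and 80 nM GFP-eIF2alpha in 50 mM Hepes pH 7.0, 10 mM MgCl2, 5 mM MnCl2, 2 mM DTT, 0.1% BSA, 1% DMSO. Reaction stopped with EDTA; phospho-eIF2alpha detected by antibody TR-FRET, excitation 340 nm.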

[3] = molecular target: T1, SYK (Homo sapiens, UniProt P43405); experiment: SYK enzyme assay (Flash plate assay / Caliper mobility shift assay); assay type: biochemical
T1 construct: purchased BPS Bioscience, CA, USA
Procedure, shortened: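 Flashplate: 2.5 nM SYK, 400 nM biotinylated peptide and 10 μM ATP with 33P-ATP, pH 7.5, 1 h at 30 °C, EDTA stop, radioactivity read, background with 0.1 μM staurosporine. Caliper: 90 min at 25 °C in HEPES pH 7.5, 1 mM MgCl2, 1 mM DTT, mobility-shift percent conversion of fluorescent peptide. IC50 from dose-response in both.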

[4] = test system: murine model of RA; conditions: cited from earlier work
[5] = test system: RA; conditions: RA Phase II studies in humans; cited from earlier work
[6] = test system: 3 LL lung carcinoma; conditions: mice; Rodriguez 2004; cited from earlier work
[7] = 100% corresponds to zero effect, −50% corresponds to IC50

Sequence of GCN2 (Q9P2K8 whole entry): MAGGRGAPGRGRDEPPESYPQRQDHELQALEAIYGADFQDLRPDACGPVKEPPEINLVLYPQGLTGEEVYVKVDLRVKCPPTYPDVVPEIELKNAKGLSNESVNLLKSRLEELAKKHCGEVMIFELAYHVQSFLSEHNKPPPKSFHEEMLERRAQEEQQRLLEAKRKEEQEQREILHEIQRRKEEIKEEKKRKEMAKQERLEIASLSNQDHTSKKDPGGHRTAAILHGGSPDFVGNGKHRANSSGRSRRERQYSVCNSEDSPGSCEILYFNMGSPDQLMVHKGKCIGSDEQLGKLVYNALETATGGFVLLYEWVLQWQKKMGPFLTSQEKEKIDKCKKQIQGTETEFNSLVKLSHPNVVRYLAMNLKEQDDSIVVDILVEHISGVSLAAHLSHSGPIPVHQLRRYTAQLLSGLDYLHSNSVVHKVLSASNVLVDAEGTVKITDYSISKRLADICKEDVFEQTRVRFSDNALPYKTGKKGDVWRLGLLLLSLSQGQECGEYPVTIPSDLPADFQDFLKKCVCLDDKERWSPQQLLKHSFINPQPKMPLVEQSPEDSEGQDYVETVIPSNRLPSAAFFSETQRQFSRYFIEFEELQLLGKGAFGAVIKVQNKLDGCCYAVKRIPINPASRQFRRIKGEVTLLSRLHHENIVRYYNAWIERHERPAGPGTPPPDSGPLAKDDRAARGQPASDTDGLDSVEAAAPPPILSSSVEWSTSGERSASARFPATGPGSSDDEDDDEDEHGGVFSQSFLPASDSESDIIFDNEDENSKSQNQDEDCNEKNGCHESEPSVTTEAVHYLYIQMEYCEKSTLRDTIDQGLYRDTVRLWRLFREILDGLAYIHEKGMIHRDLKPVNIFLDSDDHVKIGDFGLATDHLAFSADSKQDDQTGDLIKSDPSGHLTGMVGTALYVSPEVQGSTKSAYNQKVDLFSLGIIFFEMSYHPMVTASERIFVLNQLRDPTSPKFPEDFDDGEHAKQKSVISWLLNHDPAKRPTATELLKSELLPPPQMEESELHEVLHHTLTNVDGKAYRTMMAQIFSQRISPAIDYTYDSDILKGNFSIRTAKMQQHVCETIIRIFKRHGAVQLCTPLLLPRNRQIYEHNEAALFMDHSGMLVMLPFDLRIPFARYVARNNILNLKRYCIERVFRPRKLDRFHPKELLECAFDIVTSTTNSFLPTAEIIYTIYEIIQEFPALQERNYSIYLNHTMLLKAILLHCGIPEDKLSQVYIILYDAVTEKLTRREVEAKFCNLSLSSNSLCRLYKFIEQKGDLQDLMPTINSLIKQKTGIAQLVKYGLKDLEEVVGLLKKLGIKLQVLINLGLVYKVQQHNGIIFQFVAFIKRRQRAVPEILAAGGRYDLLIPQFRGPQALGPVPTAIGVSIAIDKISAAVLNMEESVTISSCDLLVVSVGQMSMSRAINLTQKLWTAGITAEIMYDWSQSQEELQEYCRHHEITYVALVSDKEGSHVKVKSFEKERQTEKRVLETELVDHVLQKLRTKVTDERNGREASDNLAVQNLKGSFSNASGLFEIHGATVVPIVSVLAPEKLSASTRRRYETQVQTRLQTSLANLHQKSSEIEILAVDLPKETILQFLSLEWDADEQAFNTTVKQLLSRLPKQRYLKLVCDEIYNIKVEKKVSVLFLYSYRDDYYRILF

Row | Compound | IC50 [2] [µM] | IC50 [3] [µM] | also measured
1 | Cn1cc(C[C@H](N)C(=O)O)c2ccccc21 [Compound 1MT, 1 methyl-tryptophan] | – | – | tumor regression [1]: unable to elicit tumor regression
2 | CC(=O)Nc1ccc(Nc2nc3cncc(-c4cnn(C)c4)n3n2)cc1C [Compound A81, N-{2-methyl-4-[5-(1-methyl-1H-pyrazol-4-yl)-[1,2,4]triazolo[1,5-a]pyrazin-2-ylamino]-phenyl}-acetamide] | < 1 | 1 to 5 | –
3 | Cc1cc(Nc2nc3cncc(-c4cnn(C)c4)n3n2)ccc1NC(=O)C1CCNCC1 [Compound A82, piperidine-4-carboxylic acid {2-methyl-4-[5-(1-methyl-1H-pyrazol-4-yl)-[1,2,4]triazolo[1,5-a]pyrazin-2-ylamino]-phenyl}-amide] | < 1 | 1 to 5 | –
4 | Cc1cc(Nc2nc3cncc(-c4cnn(C)c4)n3n2)ccc1NC(=O)C1CCOCC1 [Compound A83, tetrahydro-pyran-4-carboxylic acid {2-methyl-4-[5-(1-methyl-1H-pyrazol-4-yl)-[1,2,4]triazolo[1,5-a]pyrazin-2-ylamino]-phenyl}-amide] | < 1 | 5 to 10 | –
5 | COc1cc(Nc2nc3cncc(-c4cnn(C)c4)n3n2)ccc1NC(=O)C1CCNCC1 [Compound A84, piperidine-4-carboxylic acid {2-methoxy-4-[5-(1-methyl-1H-pyrazol-4-yl)-[1,2,4]triazolo[1,5-a]pyrazin-2-ylamino]-phenyl}-amide] | < 1 | 5 to 10 | –
6 | COc1cc(Nc2nc3cncc(-c4ccc(O)cc4)n3n2)ccc1N1CCN(C)CC1 [Compound A87, 4-{2-[3-methoxy-4-(4-methyl-piperazin-1-yl)-phenylamino]-[1,2,4]triazolo[1,5-a]pyrazin-5-yl}-phenol] | < 1 | < 1 | –
7 | COc1cc(Nc2nc3cncc(-c4cnn(C)c4)n3n2)ccc1NC(=O)C1CCOCC1 [Compound A89, tetrahydro-pyran-4-carboxylic acid {2-methoxy-4-[5-(1-methyl-1H-pyrazol-4-yl)-[1,2,4]triazolo[1,5-a]pyrazin-2-ylamino]-phenyl}-amide] | < 1 | 5 to 10 | –
8 | COc1cc(Nc2nc3cncc(-c4ccc(N5CCOCC5)cc4)n3n2)ccc1N1CCN(C)CC1 [Compound A91, [3-methoxy-4-(4-methyl-piperazin-1-yl)-phenyl]-[5-(4-morpholin-4-yl-phenyl)-[1,2,4]triazolo[1,5-a]pyrazin-2-yl]-amine] | < 1 | 1 to 5 | –
9 | COc1ccc(-c2cncc3nc(Nc4ccc(N5CCN(C)CC5)c(OC)c4)nn23)cc1 [Compound A92, [3-methoxy-4-(4-methyl-piperazin-1-yl)-phenyl]-[5-(4-methoxy-phenyl)-[1,2,4]triazolo[1,5-a]pyrazin-2-yl]-amine] | < 1 | < 1 | –
10 | COc1cc(Nc2nc3cncc(-c4ccc(NS(C)(=O)=O)cc4)n3n2)ccc1N1CCN(C)CC1 [Compound A93, N-(4-{2-[3-methoxy-4-(4-methyl-piperazin-1-yl)-phenylamino]-[1,2,4]triazolo[1,5-a]pyrazin-5-yl}-phenyl)-methanesulfonamide] | < 1 | 1 to 5 | –
11 | CNS(=O)(=O)c1ccc(-c2cncc3nc(Nc4ccc(N5CCN(C)CC5)c(OC)c4)nn23)cc1 [Compound A94, 4-{2-[3-methoxy-4-(4-methyl-piperazin-1-yl)-phenylamino]-[1,2,4]triazolo[1,5-a]pyrazin-5-yl}-N-methyl-benzenesulfonamide] | < 1 | 1 to 5 | –
12 | COc1cc(Nc2nc3cncc(-c4cccc(NS(C)(=O)=O)c4)n3n2)ccc1N1CCN(C)CC1 [Compound A95, N-(3-{2-[3-methoxy-4-(4-methyl-piperazin-1-yl)-phenylamino]-[1,2,4]triazolo[1,5-a]pyrazin-5-yl}-phenyl)-methanesulfonamide] | < 1 | 1 to 5 | –
13 | COc1cc(Nc2ncc(F)c(Nc3ccc4c(n3)NC(=O)C(C)(C)O4)n2)cc(OC)c1OC [Compound R406] | – | – | bone erosion [4]: significantly reduced; clinical scores [4]: significant improvement; serum cytokine concentrations [4]: significantly reduced; efficacy (ACR scores) [5]: efficacy (ACR scores improvement); tolerability [5]: good tolerability
14 | N=C(NO)NCC[C@H](N)C(=O)O [N-hydroxy-nor-L-Arg] | – | – | growth of s.c. 3 LL lung carcinoma [6]: blocks growth

The next lines start with results.

Row | IC50 [2] [µM] | IC50 [3] [µM] | Compound | also measured
15 | < 1 | 1 to 5 | COc1cc(Nc2nc3cncc(-c4cnn(CCC(C)C)c4)n3n2)ccc1N1CCN(C)CC1 [Compound A76, [3-methoxy-4-(4-methyl-piperazin-1-yl)-phenyl]-{5-[1-(3-methyl-butyl)-1H-pyrazol-4-yl]-[1,2,4]triazolo[1,5-a]pyrazin-2-yl}-amine] | –
16 | < 1 | 1 to 5 | COc1cc(Nc2nc3cncc(-c4cnn(C5CCOCC5)c4)n3n2)ccc1N1CCN(C)CC1 [Compound A77, [3-methoxy-4-(4-methyl-piperazin-1-yl)-phenyl]-{5-[1-(tetrahydro-pyran-4-yl)-1H-pyrazol-4-yl]-[1,2,4]triazolo[1,5-a]pyrazin-2-yl}-amine] | –
17 | < 1 | 1 to 5 | COc1cc(Nc2nc3cncc(-c4cnn(C)c4)n3n2)ccc1CN1CCOCC1 [Compound A78, (3-methoxy-4-morpholin-4-ylmethyl-phenyl)-[5-(1-methyl-1H-pyrazol-4-yl)-[1,2,4]triazolo[1,5-a]pyrazin-2-yl]-amine] | –
18 | 5 to 10 | – | COc1cc(N2CCN(C)CC2)ccc1Nc1nc2cncc(-c3cnn(C)c3)n2n1 [Compound A79, [2-methoxy-4-(4-methyl-piperazin-1-yl)-phenyl]-[5-(1-methyl-1H-pyrazol-4-yl)-[1,2,4]triazolo[1,5-a]pyrazin-2-yl]-amine] | SYK (enzyme assay) % at 3 μM [3, 7]: −9@3%
19 | < 1 | – | Cn1cc(-c2cncc3nc(Nc4cccc(N5CCOCC5)c4)nn23)cn1 [Compound A80, [5-(1-methyl-1H-pyrazol-4-yl)-[1,2,4]triazolo[1,5-a]pyrazin-2-yl]-(3-morpholin-4-yl-phenyl)-amine] | SYK (enzyme assay) % at 1 μM ([3]; at 1 μM, 100% corresponds to zero effect, −50% corresponds to IC50): −26@1%
20 | < 1 | 1 to 5 | COc1cc(Nc2nc3cncc(-c4cnn(C)c4)n3n2)ccc1NC(C)=O [Compound A85, N-{2-methoxy-4-[5-(1-methyl-1H-pyrazol-4-yl)-[1,2,4]triazolo[1,5-a]pyrazin-2-ylamino]-phenyl}-acetamide] | –
21 | < 1 | < 1 | COc1cc(Nc2nc3cncc(-c4cccc(O)c4)n3n2)ccc1N1CCN(C)CC1 [Compound A86, 3-{2-[3-methoxy-4-(4-methyl-piperazin-1-yl)-phenylamino]-[1,2,4]triazolo[1,5-a]pyrazin-5-yl}-phenol] | –
22 | < 1 | – | CN1CCN(c2ncc(Nc3nc4cncc(-c5cnn(C)c5)n4n3)cn2)CC1 [Compound A88, [2-(4-methyl-piperazin-1-yl)-pyrimidin-5-yl]-[5-(1-methyl-1H-pyrazol-4-yl)-[1,2,4]triazolo[1,5-a]pyrazin-2-yl]-amine] | SYK (enzyme assay) % at 3 μM [3, 7]: −13@3%
